According to patent publication US20080057529A1, “Method for Identifying Histone Deacetylase Inhibitors” (priority 2003, published 2008):
Where two headings read alike, the source gives them in different places. Values belong to the compound of their own block, whether it stands above or below them.

Legend:
Assay type in all cases: cell-based, human
p21 minimal promoter = test: Fluorometric β-lactamase activity assay in stable HeLa clone 1.17 (p21m-BLA); conditions: read-out: p21m-Bla EC50
Method: All clones were screened for the presence of stably and functional integrated copies of the p21m-BLA reporter gene transcription cassette by performing a fluorometric β-lactamase activity assay after treatment with the HDAC inhibitor Apicidin at a concentration of 1 μM (saturating dose representing 100% of Bla gene activation, i.e., 100% of HDAC inhibition). A 100 μL aliquot of cells for each stable transformant in complete DMEM was plated into a well of a 96 well plate at about 36,000 cells per well for treatment with 1 μM Apicidin (saturating dose) and a 100 μL aliquot of cells was plated into a well of a 96 well plate at 24,000 cells per well for treatment with DMSO (vehicle control). […] After 4 hours, 25 μL of complete DMEM containing Apicidin at 5× final concentration or DMSO (5%) was added to each of the wells. The cells were then grown at 37° C., 5% CO2 for about 12 to 16 hours. Afterwards, the medium was removed and 100 μL of DMEM without serum and 25 μL of FRET labeled CCF2-AM Bla substrate diluted in the appropriate buffer according to the manufacturer recommendations were each added to the cells to give a final concentration of 1 μM CCF2-AM.

endogenous p21 = test: Induction of endogenous p21 in HeLa cells, immunoblot; conditions: 13 hour treatment, immunoblot densitometry, read-out: Endogenous p2 EC50
Method: (§1) Induction of endogenous p21 and acetylation of core histones (inhibition of HDAC activity) was as follows. Dose-response experiments were performed in HeLa cells with different classes of known HDAC inhibitors. […] An α-tubulin-specific antibody (Sigma, St. Louis, Mo.; catalog number: T9026) was used as an internal standard. Quantitative data were obtained by densitometric analysis of X-ray films and were normalized for the internal standard values.

[1] = tested on: HDAC activity (acetylated histone H3); test: Acetylation of core histones (inhibition of HDAC activity) in HeLa cells, acetylated histone H3 immunoblot; conditions: Homo sapiens; HeLa cells, 13 hour treatment, immunoblot densitometry; read-out: AcH3 EC50
Method: as §1

- EC50 (p21 minimal promoter; clone 1.17, about 13 hours treatment, means of 3 to 4 independent experiments): 12 µM
- EC50 (endogenous p21): 22 µM
Structure (SMILES): Nc1ccccc1NC(=O)c1ccc(CNC(=O)OCc2cccnc2)cc1 [MS27-275]

Structure (SMILES): CCCC(=O)[O-].[Na+] [Na-butyrate, sodium butyrate]
- EC50 (p21 minimal promoter; Homo sapiens, HeLa, 13 h): 2000 µM

- EC50 [1]: 0.8 µM
Structure (SMILES): O=C(CCCCCCC(=O)Nc1ccccc1)NO [SAHA, suberoylanilide hydroxamic acid]
